Entries after “also recorded” stand apart in the source; their conditions may differ.

As a reminder, the Kd is a measure of binding affinity in units of concentration.

In one test the target is RNA-polymerase II (Homo sapiens, UniProt P24928). As to conditions: read-out: KD of the complex between amanitin and RNA-polymerase II; cited from earlier work.
For test [1], the system named is SUM190PT (Nectin-4-positive, solid tumor) xenograft. Description: Tumor growth inhibition in SUM190PT xenograft model. Type of test: in vivo, CB17 SCID mice. The following applies: single i.v. injection. The protocol: For SUM190PT xenografts, 2×10^6 cells were injected into the mammary fat pad of CB17 SCID mice (Janvier). Tumor dimensions and body weights were recorded three times weekly. The tumor volume was calculated according to the formula volume=(width)^2×length×0.5. When the average tumor size reached about 200 mm^3, mice were allocated using a non-random stratification protocol into the treatment groups comprising six mice each. ADCs were intravenously injected once on the day of randomization. The ADCs according to this invention were produced in-house as described in Example 2. Enfortumab vedotin (DAR 4) was commercially available, bought from a pharmacy. ARA-04-MMAE-PABC-AA-C2-RKAA-PABC-MMAE (DAR 4.0) and ARA-04-RKAA-PABC-(MMAE)2 (DAR 3.8) were injected at ADC doses corresponding to 10 μg payload dose per kg mouse weight (10 μg/kg). Enfortumab vedotin (DAR 4) was injected 15 μg payload dose per kg mouse weight (15 μg/kg). Mice in the control group were injected with PBS. All mouse experiments were performed in accordance with Swiss guidelines and were approved by the Veterinarian Office of Zurich, Switzerland.

In the next test the test system is various tumor cell lines. The following applies: cited from earlier work.
Setting [2] is: 10 μg/kg payload dose, six mice per group.

Turning to amanitin, the Kd at RNA-polymerase II was 3 nM.
With “ARA-04-MMAE-PABC-AA-C2-RKAA-PABC-MMAE: anti-Nectin-4 ADC (DAR 4.0), same antibody and payload as Enfortumab vedotin, payloads at N- and C-terminal end of peptide linker”, in test [1] (setting [2]), the “anti-tumor response (in words)” value is “active in vivo; also recorded: superior efficacy providing survival advantage” and the “mice with complete long-lasting responses” value was 4/6.
Turning to `CC[C@H](C)[C@H](NC(=O)[C@H]1CCCCN1C)C(=O)N(COC(=O)CC(C)C)[C@H](C[C@@H](OC(C)=O)c1nc(C(=O)N[C@@H](Cc2ccc(O)cc2)C[C@H](C)C(=O)O)cs1)C(C)C` [Tubulysin A], the “IC50, cytostatic effects” value in the test with various tumor cell lines is given as “picomolar range”.
Turning to Enfortumab vedotin [reference compound], the “animals with marked regrowth after day 40” value in test [1] (15 μg/kg payload dose) is on record as 6/6. Besides, in test [1] (15 μg/kg payload dose, six mice per group), the “anti-tumor response (in words)” value is recorded as “transient tumor regression with no tumor-free individuals at 20 days after treatment”.
As to “ARA-04-RKAA-PABC-(MMAE)2: anti-Nectin-4 ADC (DAR 3.8), same antibody and payload as Enfortumab vedotin, payloads only at C-terminal end of peptide linker”, the “anti-tumor response (in words)” value in test [1] (setting [2]) was “tumor control for approximately 20 days in 6/6 mice followed by re-growth of tumors; also recorded: active in vivo”.

Source of the values: patent US20250082774A1, “PEPTIDE LINKERS COMPRISING TWO OR MORE PAYLOADS” (ARARIS BIOTECH AG, priority 2022, published 2025).
